Experimental findings from ChEMBL document CHEMBL3991601, “The target landscape of clinical kinase drugs” (Science, 2017) are described below.

For orientation: Kd means the constant that tells how readily two partners part at equilibrium.

The source made the active and inactive calls. Cut-off read from the data, not from the text of the source, for most assays here: actives have a measured Kd and inactives only a lower limit.

In experiment [1] the target is Adenylate kinase 2, mitochondrial (Homo sapiens, UniProt P54819).
Experiment [2] addresses Serine/threonine-protein kinase 16 (Homo sapiens, UniProt O75716).
Experiment [3] concerns the target cAMP-dependent protein kinase catalytic subunit gamma (Homo sapiens, UniProt P22612).
The target in experiment [4] is T1, Cyclin-G-associated kinase (Homo sapiens, UniProt O14976).
T1 sequence (O14976 whole entry): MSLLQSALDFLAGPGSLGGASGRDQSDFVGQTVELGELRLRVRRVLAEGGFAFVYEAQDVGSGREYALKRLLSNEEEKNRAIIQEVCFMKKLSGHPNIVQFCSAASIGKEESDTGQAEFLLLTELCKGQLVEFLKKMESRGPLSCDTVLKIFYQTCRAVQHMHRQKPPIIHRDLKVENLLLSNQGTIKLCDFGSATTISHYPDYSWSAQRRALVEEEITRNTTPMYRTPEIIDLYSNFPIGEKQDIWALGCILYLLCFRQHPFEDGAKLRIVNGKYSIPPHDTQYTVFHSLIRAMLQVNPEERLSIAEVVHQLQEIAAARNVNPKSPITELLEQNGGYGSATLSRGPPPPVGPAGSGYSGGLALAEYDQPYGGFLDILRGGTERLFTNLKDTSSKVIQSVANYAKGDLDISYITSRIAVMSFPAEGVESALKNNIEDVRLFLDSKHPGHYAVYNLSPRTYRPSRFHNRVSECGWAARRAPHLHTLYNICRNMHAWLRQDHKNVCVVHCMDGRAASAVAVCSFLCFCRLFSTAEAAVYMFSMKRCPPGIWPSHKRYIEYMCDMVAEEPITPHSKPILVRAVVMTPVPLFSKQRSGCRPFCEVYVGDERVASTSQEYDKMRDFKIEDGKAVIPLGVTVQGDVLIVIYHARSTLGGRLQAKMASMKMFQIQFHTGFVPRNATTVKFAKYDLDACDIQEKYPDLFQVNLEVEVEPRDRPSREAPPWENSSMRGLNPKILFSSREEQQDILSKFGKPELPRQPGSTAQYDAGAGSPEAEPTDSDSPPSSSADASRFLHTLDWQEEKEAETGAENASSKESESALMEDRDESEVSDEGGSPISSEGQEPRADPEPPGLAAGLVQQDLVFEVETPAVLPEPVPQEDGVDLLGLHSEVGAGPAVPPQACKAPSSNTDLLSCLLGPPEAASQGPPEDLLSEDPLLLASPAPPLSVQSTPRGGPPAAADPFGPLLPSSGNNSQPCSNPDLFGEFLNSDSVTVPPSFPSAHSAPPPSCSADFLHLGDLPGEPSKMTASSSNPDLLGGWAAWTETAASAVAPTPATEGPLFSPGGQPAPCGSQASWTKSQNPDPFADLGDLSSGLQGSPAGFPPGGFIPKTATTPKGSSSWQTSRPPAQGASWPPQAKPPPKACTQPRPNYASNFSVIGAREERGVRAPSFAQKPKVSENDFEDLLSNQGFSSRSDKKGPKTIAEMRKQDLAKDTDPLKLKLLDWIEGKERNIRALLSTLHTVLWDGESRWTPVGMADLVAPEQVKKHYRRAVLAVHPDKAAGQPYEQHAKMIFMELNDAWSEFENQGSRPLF

Experiment [5] concerns the target Calcium/calmodulin-dependent protein kinase kinase 2 (Homo sapiens, UniProt Q96RR4).
In experiment [6] the target is Ribosomal protein S6 kinase alpha-3 (Homo sapiens, UniProt P51812).
For the next experiment, the target named is T2, Glycine--tRNA ligase (Homo sapiens, UniProt P41250).
T2 sequence (P41250 whole entry): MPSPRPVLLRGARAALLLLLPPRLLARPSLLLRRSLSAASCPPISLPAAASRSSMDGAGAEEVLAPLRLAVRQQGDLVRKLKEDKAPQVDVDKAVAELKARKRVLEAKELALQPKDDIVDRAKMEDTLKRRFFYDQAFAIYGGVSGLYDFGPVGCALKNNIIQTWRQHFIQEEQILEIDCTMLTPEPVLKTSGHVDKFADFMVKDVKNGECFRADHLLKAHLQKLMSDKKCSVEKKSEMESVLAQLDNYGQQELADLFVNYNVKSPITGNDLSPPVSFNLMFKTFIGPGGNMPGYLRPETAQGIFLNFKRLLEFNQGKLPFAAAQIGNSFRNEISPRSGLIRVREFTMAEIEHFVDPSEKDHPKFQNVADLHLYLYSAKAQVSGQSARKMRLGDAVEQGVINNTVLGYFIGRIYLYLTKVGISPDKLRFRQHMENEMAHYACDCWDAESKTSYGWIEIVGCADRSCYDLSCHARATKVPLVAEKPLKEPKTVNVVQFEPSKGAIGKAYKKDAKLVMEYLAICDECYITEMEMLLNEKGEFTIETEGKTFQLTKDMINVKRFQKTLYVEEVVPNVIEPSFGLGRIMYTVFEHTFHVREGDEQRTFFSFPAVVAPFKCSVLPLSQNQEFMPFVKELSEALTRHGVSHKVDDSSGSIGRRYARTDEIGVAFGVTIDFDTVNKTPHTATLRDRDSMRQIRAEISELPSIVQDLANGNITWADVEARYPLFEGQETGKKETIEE

The target in experiment [7] is Serine/threonine-protein kinase/endoribonuclease IRE1 (Homo sapiens, UniProt O75460).
The target of experiment [8] is T3, STE20-related kinase adapter protein alpha (Homo sapiens, UniProt Q7RTN6).
T3 sequence (Q7RTN6 whole entry): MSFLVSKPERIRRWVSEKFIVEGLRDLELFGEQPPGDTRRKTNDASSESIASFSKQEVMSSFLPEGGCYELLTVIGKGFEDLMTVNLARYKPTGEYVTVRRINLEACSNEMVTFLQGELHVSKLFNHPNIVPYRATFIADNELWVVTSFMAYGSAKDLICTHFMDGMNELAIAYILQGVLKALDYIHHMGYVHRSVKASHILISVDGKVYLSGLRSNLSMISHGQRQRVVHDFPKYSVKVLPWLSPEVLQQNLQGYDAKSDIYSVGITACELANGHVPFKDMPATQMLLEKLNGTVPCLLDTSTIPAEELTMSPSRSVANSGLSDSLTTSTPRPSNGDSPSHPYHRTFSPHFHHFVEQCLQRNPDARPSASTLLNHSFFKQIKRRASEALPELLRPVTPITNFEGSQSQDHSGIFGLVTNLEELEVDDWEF
Note: in the data inactive means no Kd found up to 30 µM.

Sequence of cAMP-dependent protein kinase catalytic subunit gamma (P22612 whole entry): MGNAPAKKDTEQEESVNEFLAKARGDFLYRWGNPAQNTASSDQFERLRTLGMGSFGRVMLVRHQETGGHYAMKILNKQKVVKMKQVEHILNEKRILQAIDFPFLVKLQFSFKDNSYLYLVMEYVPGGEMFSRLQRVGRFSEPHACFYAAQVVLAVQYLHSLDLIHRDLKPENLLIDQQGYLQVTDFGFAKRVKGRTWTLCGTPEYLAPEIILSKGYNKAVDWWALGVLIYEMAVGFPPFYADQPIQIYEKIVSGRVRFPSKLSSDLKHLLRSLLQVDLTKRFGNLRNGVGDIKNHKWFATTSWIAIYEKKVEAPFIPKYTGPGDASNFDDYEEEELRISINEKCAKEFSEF
Sequence of Calcium/calmodulin-dependent protein kinase kinase 2 (Q96RR4 whole entry): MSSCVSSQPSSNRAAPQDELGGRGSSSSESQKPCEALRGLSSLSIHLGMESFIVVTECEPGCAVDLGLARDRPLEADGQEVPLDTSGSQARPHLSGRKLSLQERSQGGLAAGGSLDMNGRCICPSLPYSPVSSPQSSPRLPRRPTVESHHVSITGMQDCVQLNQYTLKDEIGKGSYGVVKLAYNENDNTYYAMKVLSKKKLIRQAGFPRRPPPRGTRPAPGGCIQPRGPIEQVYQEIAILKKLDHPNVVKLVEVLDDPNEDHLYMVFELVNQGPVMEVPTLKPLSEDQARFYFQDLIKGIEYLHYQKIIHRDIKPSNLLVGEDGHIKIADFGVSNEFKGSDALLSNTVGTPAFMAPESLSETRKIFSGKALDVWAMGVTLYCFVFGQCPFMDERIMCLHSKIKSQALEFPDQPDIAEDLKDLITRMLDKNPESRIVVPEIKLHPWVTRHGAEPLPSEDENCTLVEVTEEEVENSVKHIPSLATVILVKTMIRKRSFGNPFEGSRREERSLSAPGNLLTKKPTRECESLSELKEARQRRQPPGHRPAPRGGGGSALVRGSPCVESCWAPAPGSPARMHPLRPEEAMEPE
Sequence of Serine/threonine-protein kinase 16 (O75716 whole entry): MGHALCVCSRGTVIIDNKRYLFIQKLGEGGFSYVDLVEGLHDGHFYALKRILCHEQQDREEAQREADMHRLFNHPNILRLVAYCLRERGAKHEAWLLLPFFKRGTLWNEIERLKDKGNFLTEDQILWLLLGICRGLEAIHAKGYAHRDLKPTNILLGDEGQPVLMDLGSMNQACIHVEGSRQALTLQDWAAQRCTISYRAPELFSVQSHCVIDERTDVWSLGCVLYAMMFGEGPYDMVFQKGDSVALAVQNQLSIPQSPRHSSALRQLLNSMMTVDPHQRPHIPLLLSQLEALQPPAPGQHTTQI
Sequence of Serine/threonine-protein kinase/endoribonuclease IRE1 (O75460 whole entry): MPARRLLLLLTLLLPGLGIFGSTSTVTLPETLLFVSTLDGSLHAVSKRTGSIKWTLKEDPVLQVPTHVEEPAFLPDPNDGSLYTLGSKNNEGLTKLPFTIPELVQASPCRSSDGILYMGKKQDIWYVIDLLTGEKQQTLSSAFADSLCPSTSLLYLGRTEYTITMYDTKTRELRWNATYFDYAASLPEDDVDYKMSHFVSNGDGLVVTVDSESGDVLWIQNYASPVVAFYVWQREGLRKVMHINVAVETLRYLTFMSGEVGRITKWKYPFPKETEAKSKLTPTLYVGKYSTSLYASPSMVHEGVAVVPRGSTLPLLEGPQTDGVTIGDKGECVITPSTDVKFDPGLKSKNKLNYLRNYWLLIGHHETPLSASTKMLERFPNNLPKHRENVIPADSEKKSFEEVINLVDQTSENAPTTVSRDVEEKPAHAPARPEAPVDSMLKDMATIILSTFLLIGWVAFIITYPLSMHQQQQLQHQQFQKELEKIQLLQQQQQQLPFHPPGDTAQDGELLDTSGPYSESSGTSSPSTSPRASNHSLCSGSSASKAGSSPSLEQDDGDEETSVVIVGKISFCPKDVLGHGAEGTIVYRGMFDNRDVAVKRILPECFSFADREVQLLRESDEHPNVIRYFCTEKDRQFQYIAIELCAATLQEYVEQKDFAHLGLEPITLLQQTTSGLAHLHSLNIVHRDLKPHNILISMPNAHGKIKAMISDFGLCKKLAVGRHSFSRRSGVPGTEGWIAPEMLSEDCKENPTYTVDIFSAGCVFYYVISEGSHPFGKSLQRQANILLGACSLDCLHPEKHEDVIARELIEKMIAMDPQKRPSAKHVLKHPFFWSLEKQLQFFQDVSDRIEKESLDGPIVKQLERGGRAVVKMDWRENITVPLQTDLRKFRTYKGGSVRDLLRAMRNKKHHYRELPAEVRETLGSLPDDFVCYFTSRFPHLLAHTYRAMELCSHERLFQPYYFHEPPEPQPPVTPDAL
Sequence of Ribosomal protein S6 kinase alpha-3 (P51812 whole entry): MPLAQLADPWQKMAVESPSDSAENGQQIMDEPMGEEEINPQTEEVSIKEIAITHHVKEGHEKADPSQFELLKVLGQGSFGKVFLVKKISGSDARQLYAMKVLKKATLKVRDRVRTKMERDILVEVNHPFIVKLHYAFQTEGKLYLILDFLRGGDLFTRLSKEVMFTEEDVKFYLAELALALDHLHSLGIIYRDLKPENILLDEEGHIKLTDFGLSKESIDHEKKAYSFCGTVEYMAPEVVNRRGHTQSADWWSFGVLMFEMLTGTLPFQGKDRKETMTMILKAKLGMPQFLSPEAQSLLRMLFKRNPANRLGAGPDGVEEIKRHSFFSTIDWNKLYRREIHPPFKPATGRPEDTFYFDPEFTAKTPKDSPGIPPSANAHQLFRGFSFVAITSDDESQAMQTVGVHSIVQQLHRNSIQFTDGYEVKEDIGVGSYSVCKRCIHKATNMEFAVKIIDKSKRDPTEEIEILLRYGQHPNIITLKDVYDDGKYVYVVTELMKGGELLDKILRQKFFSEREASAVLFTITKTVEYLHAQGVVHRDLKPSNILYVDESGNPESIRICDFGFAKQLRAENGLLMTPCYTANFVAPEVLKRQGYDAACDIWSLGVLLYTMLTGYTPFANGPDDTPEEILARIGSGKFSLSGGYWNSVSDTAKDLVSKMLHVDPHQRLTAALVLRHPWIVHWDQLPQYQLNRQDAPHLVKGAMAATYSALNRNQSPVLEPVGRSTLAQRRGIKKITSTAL

Take `C[C@H]1CNCCCN1S(=O)(=O)c1cccc2cncc(F)c12`: the Kd in experiment [1], in experiment [2], in experiment [3], in [4], in [5] and in [6] was > 30 µM (inactive) each time. In addition, the Kd (on Glycine--tRNA ligase; in [7]) was > 30 µM (inactive) in each case.
For the compound `CCNC(=O)C#Cc1ccc2c(c1)NC(=O)/C2=C(\Nc1ccc(CN(C)C)cc1)c1ccccc1`, the Kd is > 30 µM (inactive) in experiment [1]; > 30 µM (inactive) in experiment [2]; > 30 µM (inactive) in [3]; > 30 µM (inactive) in experiment [4]; > 30 µM (inactive) in experiment [5]; 0.734 µM (active) in experiment [6]. In addition, the Kd (in experiment [8]; on Glycine--tRNA ligase; in [7]) was > 30 µM (inactive) in each case.
On to `C=CC(=O)N1CCC[C@H](n2c(=O)n(-c3ccc(Oc4ccccc4)cc3)c3c(N)ncnc32)C1`, for which the Kd in experiment [1], in experiment [2], in [3], in experiment [4], in experiment [5] and in experiment [6] was > 30 µM (inactive) throughout. The Kd (in [8]; on Glycine--tRNA ligase; in experiment [7]) was > 30 µM (inactive) in each case.
Regarding `COCc1c(-c2ccc(NC(=O)Nc3cc(C(F)(F)F)ccc3F)c(F)c2)c2c(N)ncnn2c1CN1CCOCC1`, the Kd in experiment [1] was > 30 µM (inactive); in experiment [2], > 30 µM (inactive); in experiment [3] it was > 30 µM (inactive); in experiment [4] it was > 30 µM (inactive); in [5] it was > 30 µM (inactive); in [6], 5.31 µM (active). In addition, the Kd (in experiment [8]; on Glycine--tRNA ligase; in experiment [7]) was > 30 µM (inactive) throughout.
For the compound `NC(=O)Nc1cc(-c2cccc(F)c2)sc1C(=O)N[C@H]1CCCNC1` [AZD-7762], the Kd in experiment [1] is > 30 µM (inactive); in experiment [2] it was > 30 µM (inactive); in experiment [3], > 30 µM (inactive); in experiment [4], 0.202 µM (active); in experiment [5], > 30 µM (inactive); in [6] it was > 30 µM (inactive). For the same compound, the Kd (in [8]; at Glycine--tRNA ligase) was > 30 µM (inactive) each time.
As to `CNC(=O)c1nn(C)c2c1C(C)(C)Cc1cnc(Nc3ccc(N4CCN(C)CC4)cc3)nc1-2` [MILCICLIB], the Kd in experiment [1] was > 30 µM (inactive); in experiment [2], 1.1 µM (active); in [3], > 30 µM (inactive); in experiment [4], 0.003 µM (active); in [6], > 30 µM (inactive); in experiment [8], > 30 µM (inactive). The Kd (on Glycine--tRNA ligase; in experiment [7]) was > 30 µM (inactive) in each case.
For the compound `CCOc1cc2ncc(C#N)c(Nc3ccc(F)c(Cl)c3)c2cc1NC(=O)/C=C/CN(C)C` [PELITINIB], the Kd in [1] was > 30 µM (inactive); in experiment [2], > 30 µM (inactive); in experiment [4] it was 0.117 µM (active); in [5], 1.39 µM (active); in experiment [6], > 30 µM (inactive); in [8], > 30 µM (inactive). For the same compound, the Kd (on Glycine--tRNA ligase; in [7]) was > 30 µM (inactive) throughout.
Regarding `CNC(=O)c1cc(Oc2ccc(NC(=O)Nc3cc(C(C)(C)C)nn3-c3ccc4ncccc4c3)c(F)c2)ccn1` [REBASTINIB], the Kd in [1], in [3], in [4], in experiment [5], in [6] and in experiment [8] was > 30 µM (inactive) each time. For the same compound, the Kd on Glycine--tRNA ligase is > 30 µM (inactive).
In the case of `CN1CCN(CCOc2cc(OC3CCOCC3)c3c(Nc4c(Cl)ccc5c4OCO5)ncnc3c2)CC1` [SARACATINIB], the Kd in experiment [1], in experiment [2], in experiment [3], in [5], in [6] and in experiment [8] was > 30 µM (inactive) each time. In addition, the Kd (on Glycine--tRNA ligase; in [7]) was > 30 µM (inactive) throughout.
As to `CO[C@H]1C[C@@H]2CC[C@@H](C)[C@@](O)(O2)C(=O)C(=O)N2CCCC[C@H]2C(=O)O[C@H]([C@H](C)C[C@@H]2CC[C@@H](O)[C@H](OC)C2)CC(=O)[C@H](C)/C=C(\C)[C@@H](O)[C@@H](OC)C(=O)[C@H](C)C[C@H](C)/C=C/C=C/C=C/1C` [SIROLIMUS], the Kd in [1], in experiment [2], in experiment [4], in experiment [5], in [6] and in [8] was > 30 µM (inactive) each time. Also, the Kd (on Glycine--tRNA ligase; in [7]) was > 30 µM (inactive) throughout.
Turning to `O=C(Cc1ccc(-c2ccc(OCCN3CCOCC3)cc2)cn1)NCc1ccccc1` [TIRBANIBULIN], the Kd in experiment [1], in [2], in [4], in experiment [5], in experiment [6] and in [8] was > 30 µM (inactive) each time. The Kd (on Glycine--tRNA ligase; in experiment [7]) was > 30 µM (inactive) each time.
Regarding `O=C1NC(=O)[C@@H](c2cn3c4c(cccc24)CCC3)[C@@H]1c1c[nH]c2ccccc12` [TIVANTINIB], the Kd in experiment [1], in experiment [2], in experiment [4], in [5], in experiment [6] and in [8] was > 30 µM (inactive) each time. The Kd (at Glycine--tRNA ligase; in experiment [7]) was > 30 µM (inactive) each time.
